In patent publication US11519922B2, “Methods for identifying risk of chemotherapy-induced cardiotoxicity and targeted medical intervention” (Detroit R&D, Inc., priority 2018, dated 2022):

Experiments:
sEH enzyme in H9c2 cells = target: T1, sEH enzyme in H9c2 cells (Rattus norvegicus, UniProt P80299); test: 14,15-DHET formation from added 14,15-EET by H9c2 cells; type: cell-based
T1 construct: host or cells: H9c2 rat cardiomyocytes
T1 sequence (P80299 1-554): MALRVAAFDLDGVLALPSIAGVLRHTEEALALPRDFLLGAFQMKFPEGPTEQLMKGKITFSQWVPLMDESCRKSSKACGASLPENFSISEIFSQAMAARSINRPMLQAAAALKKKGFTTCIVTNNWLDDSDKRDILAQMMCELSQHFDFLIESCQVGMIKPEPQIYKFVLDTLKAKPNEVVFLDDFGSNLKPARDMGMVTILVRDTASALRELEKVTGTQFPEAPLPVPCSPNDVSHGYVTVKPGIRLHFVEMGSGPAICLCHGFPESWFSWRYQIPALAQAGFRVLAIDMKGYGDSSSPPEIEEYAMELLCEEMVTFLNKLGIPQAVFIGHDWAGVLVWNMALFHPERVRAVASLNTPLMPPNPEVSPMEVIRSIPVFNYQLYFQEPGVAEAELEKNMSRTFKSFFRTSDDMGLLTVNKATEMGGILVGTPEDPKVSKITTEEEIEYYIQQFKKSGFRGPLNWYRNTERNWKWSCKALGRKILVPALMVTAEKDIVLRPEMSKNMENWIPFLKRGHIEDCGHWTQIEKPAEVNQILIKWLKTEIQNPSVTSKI
Protocol: Expression of sEH enzyme in the cells was confirmed by detection of increased 14,15-DHET formation activity after 1 μM EET (substrate) treatment.
sEH enzyme converts 14,15-EET to 14,15-DHET, so differential levels of 14,15-DHET will reflect sEH activity. After addition of 1 μM 14,15-EET to H9c2 cells, ˜250 ng/ml 14,15-DHET was formed in cell media in 30 min and 4.5-fold higher level of 14,15-DHET was formed when the EET level was increased from 1 μM to 5 μM, verifying EET-dose-dependent 14,15-DHET formation by rat H9c2 cardiomyocyte cells.

recombinant sEH = target: T2, recombinant sEH (Homo sapiens, UniProt P34913); test: Inhibition of EET-dependent sEH activity, reconstituted system; type: biochemical
T2 sequence (P34913 1-555): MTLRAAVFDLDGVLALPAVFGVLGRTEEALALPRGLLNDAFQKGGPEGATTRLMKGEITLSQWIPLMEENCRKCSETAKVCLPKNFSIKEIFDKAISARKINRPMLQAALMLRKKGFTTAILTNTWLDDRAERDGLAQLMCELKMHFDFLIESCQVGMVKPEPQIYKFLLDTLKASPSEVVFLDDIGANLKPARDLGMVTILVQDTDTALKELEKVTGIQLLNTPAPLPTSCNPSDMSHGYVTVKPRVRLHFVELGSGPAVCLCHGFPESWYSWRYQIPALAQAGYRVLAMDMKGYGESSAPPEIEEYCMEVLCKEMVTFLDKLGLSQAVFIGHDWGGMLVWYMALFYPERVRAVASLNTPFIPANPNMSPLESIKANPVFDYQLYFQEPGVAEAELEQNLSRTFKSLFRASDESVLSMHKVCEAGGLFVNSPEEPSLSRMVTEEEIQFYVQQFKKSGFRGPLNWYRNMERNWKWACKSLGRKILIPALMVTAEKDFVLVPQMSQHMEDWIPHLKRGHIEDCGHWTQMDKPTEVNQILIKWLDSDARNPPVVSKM

[1] = target: T3, sEH in human kidney cells (ACHN) (Homo sapiens, UniProt P34913); test: Inhibition of EET-dependent sEH activity in kidney cells; type: cell-based; details: EET 1 μM
T3 construct: recombinant sEH and human kidney cells (ACHN); endogenous in cells; host or cells: ACHN human kidney cells
T3 sequence (P34913 1-555): T2 sequence (P34913 1-555)

| SMILES | 14,15-DHET formed in cell media (sEH enzyme in H9c2 cells; 1 μM 14,15-EET, 30 min) [ng/mL] | higher level of 14,15-DHET formed (sEH enzyme in H9c2 cells; EET level increased from 1 μM to 5 μM) [fold] | EET-dependent sEH activity (recombinant sEH; EET 1 μM, reconstituted system with recombinant sEH) | inhibitor of the sEH activity (overall statement) (recombinant sEH; recombinant sEH and ACHN cells) | EET-dependent sEH activity [1] |
| --- | --- | --- | --- | --- | --- |
| CCCCCC1OC1C/C=C\C/C=C\C/C=C\CCCC(=O)O (centres unmarked) [14,15-EET] | ~250 | 4.5 |  |  |  |
| C=CCc1ccc(O)c(-c2ccc(O)c(CC=C)c2)c1 [Honokiol] |  |  | inhibited | potent inhibitors | inhibited |
